System: conscious telemetered beagle dogs
Test: Left-ventricular hemodynamic, mechanical and timing indices by radio-telemetry before and during IV OM or vehicle, on repeated oral IVA or placebo
Format: in vivo, beagle dog
Protocol: Healthy male beagle dogs (n=7) instrumented with radio-telemetry units providing continuous single-lead electrocardiogram (ECG), as well as systemic (arterial, AoP) and left-ventricular (LVP) pressure signals were used for this study. Following sling acclimation, the animals were assigned to receive repeated oral (via gavage) treatments with either Ivabradine (IVA, 5 mg/kg bid) or a volume-matched placebo-control (sterile water, CTRL) for 5 days, administered at a dose volume of 10 mL/kg, in a cross over design.
The animals were sling-restrained and were subjected to acute intravenous administration of either sterile water (VEH, on Days 4 and 11 of dosing) or Omecamtiv Mecarbil (OM, on Days 5 and 12 of dosing). OM treatments were performed over a 3-hour infusion duration, following a dose-escalation design targeting plasma concentrations of 600 and 1000 ng/mL (each over 90 minutes, with a 30 minute loading infusion followed by a 60 minute maintenance infusion) for a cumulative dose of 5.293 mg/kg (as shown in Table A below). The IV vehicle treatments were time- and volume-matched.
Telemetered data were collected continuously for at least 90 minutes prior to and during dosing, as well as for at least 20 hours post-dose. The LVP and ECG signals were digitized at a sampling rate of at least 1000 Hz. The data were analyzed for heart rate (HR) and left-ventricular hemodynamic/mechanical indices that were obtained from the pressure waveform, including mean systolic (MSP) and end-diastolic (filling, EDP) pressures, the peak rates of pressure change during systole/diastole (dP/dtmax/min), as well as the time-constant of relaxation (tau) and a contractility index (CI: dP/dtmax normalized by the pressure at dP/dtmax). The data were also analyzed for systolic and diastolic intervals, including the estimated durations of the systolic ejection (SET), contraction (CT), active relaxation (RT) and filling intervals (FT), as well as the systolic-to-diastolic interval ratio (S/D: SET/RT+FT), which were derived from the left-ventricular pressure waveform.
The left-ventricular indices were evaluated only in the sling-restrained animals before and during IV treatment with OM or vehicle. Cardiovascular responses at each dose level were monitored for up to 90 minutes, i.e., over 3 hours total (during IV dosing of VEH and OM on Days 4, 5, 11, and 12 in the dose administration paradigm). Overall, in-sling cardiovascular data are reported at the following pre-determined/targeted time points: prior to dosing (i.e., at baseline, PRE) and approximately at the end of each infusion period (i.e., up to 4 time points during dosing, D1 to D4). Signals were analyzed continuously in 5-minute epochs, with pre-administration (i.e., PRE) values representing the overall mean over at least 5-epochs (i.e., 25 minutes) taken immediately prior to the onset of dosing, while during-dosing values reflect 5-minute averages (i.e., 1 epoch) taken prior to the (estimated) termination of each infusion. Data are presented as both means with standard deviations in summarizing tables/figure; beat-to-beat plots against heart rate are part of the study file.

[1] = D1, end of 30-min loading infusion, target OM 600 ng/mL
[2] = D2, end of 60-min maintenance infusion, target OM 600 ng/mL
[3] = D3, end of 30-min loading infusion, target OM 1000 ng/mL
[4] = D4, end of 60-min maintenance infusion, target OM 1000 ng/mL
[5] = PRE, before IV dosing (baseline)
[6] = baseline after repeated oral IVA 5 mg/kg bid, mean pre-dosing averages across study days
[7] = baseline after repeated oral IVA 5 mg/kg bid, vs. placebo-control

COc1cc2c(cc1OC)CC(=O)N(CCCN(C)C[C@H]1Cc3cc(OC)c(OC)cc31)CC2 [IVA]
CT % vs. PRE [1]: 4%
CT (contraction time) [1]: 63.8 ms
EDP % vs. PRE [1]: −10%
EDP (left-ventricular end-diastolic pressure) [1]: 14.4 mmHg
FT % vs. PRE [1]: 11%
FT (filling time) [1]: 586 ms
HR % vs. PRE [1]: −9%
HR (heart rate) [1]: 76 bpm
MSP % vs. PRE [1]: 0%
MSP (left-ventricular mean systolic pressure) [1]: 138 mmHg
RT % vs. PRE [1]: 1%
RT (relaxation time) [1]: 88 ms
S/D % vs. PRE [1]: −4%
S/D (systolic to diastolic ratio, SET/RT + FT) [1]: 0.2
SET % vs. PRE [1]: 4%
SET (systolic ejection time) [1]: 161 ms
Tau % vs. PRE [1]: 3 ± 2%
Tau (left-ventricular relaxation time-constant) [1]: 28.7 ± 1.7 ms
Vmax % vs. PRE [1]: 0 ± 1%
Vmax (estimated maximal velocity of myocardial contractile-element shortening) [1]: 36.9 ± 1.3 s⁻¹
dP/dtmax % vs. PRE [1]: −2%
dP/dtmax (peak rate of LV pressure change during systole) [1]: 2,606 mmHg/s
dP/dtmin % vs. PRE [1]: −2%
dP/dtmin (peak rate of LV pressure change during diastole) [1]: −2,365 mmHg/s
CT % vs. PRE [2]: 9%
CT (contraction time) [2]: 67.2 ms
EDP % vs. PRE [2]: 0%
EDP (left-ventricular end-diastolic pressure) [2]: 15.3 mmHg
FT % vs. PRE [2]: 8%
FT (filling time) [2]: 571 ms
HR % vs. PRE [2]: −9%
HR (heart rate) [2]: 76 bpm
MSP % vs. PRE [2]: 5%
MSP (left-ventricular mean systolic pressure) [2]: 145 mmHg
RT % vs. PRE [2]: 4%
RT (relaxation time) [2]: 90 ms
S/D % vs. PRE [2]: 0%
S/D (systolic to diastolic ratio, SET/RT + FT) [2]: 0.25
SET % vs. PRE [2]: 6%
SET (systolic ejection time) [2]: 163 ms
Tau % vs. PRE [2]: 6 ± 2%
Tau (left-ventricular relaxation time-constant) [2]: 29.3 ± 1.0 ms
Vmax % vs. PRE [2]: −1 ± 1%
Vmax (estimated maximal velocity of myocardial contractile-element shortening) [2]: 36.7 ± 0.8 s⁻¹
dP/dtmax % vs. PRE [2]: 2%
dP/dtmax (peak rate of LV pressure change during systole) [2]: 2,704 mmHg/s
dP/dtmin % vs. PRE [2]: 4%
dP/dtmin (peak rate of LV pressure change during diastole) [2]: −2,492 mmHg/s
CT % vs. PRE [3]: 6%
CT (contraction time) [3]: 64.9 ms
EDP % vs. PRE [3]: −4%
EDP (left-ventricular end-diastolic pressure) [3]: 14.5 mmHg
FT % vs. PRE [3]: 24%
FT (filling time) [3]: 651 ms
HR % vs. PRE [3]: −17%
HR (heart rate) [3]: 69 bpm
MSP % vs. PRE [3]: 3%
MSP (left-ventricular mean systolic pressure) [3]: 143 mmHg
RT % vs. PRE [3]: 6%
RT (relaxation time) [3]: 92 ms
S/D % vs. PRE [3]: −8%
S/D (systolic to diastolic ratio, SET/RT + FT) [3]: 0.23
SET % vs. PRE [3]: 8%
SET (systolic ejection time) [3]: 167 ms
Tau % vs. PRE [3]: 5 ± 3%
Tau (left-ventricular relaxation time-constant) [3]: 29.2 ± 1.0 ms
Vmax % vs. PRE [3]: 1 ± 2%
Vmax (estimated maximal velocity of myocardial contractile-element shortening) [3]: 37.2 ± 0.7 s⁻¹
dP/dtmax % vs. PRE [3]: 0%
dP/dtmax (peak rate of LV pressure change during systole) [3]: 2,662 mmHg/s
dP/dtmin % vs. PRE [3]: 1%
dP/dtmin (peak rate of LV pressure change during diastole) [3]: −2,425 mmHg/s
CT % vs. PRE [4]: 11%
CT (contraction time) [4]: 67.9 ms
EDP % vs. PRE [4]: −9%
EDP (left-ventricular end-diastolic pressure) [4]: 14.2 mmHg
FT % vs. PRE [4]: 9%
FT (filling time) [4]: 577 ms
HR % vs. PRE [4]: −12%
HR (heart rate) [4]: 74 bpm
MSP % vs. PRE [4]: 4%
MSP (left-ventricular mean systolic pressure) [4]: 143 mmHg
RT % vs. PRE [4]: 5%
RT (relaxation time) [4]: 91 ms
S/D % vs. PRE [4]: 0%
S/D (systolic to diastolic ratio, SET/RT + FT) [4]: 0.25
SET % vs. PRE [4]: 7%
SET (systolic ejection time) [4]: 165 ms
Tau % vs. PRE [4]: 3 ± 2%
Tau (left-ventricular relaxation time-constant) [4]: 28.8 ± 1.5 ms
Vmax % vs. PRE [4]: 1 ± 1%
Vmax (estimated maximal velocity of myocardial contractile-element shortening) [4]: 37.3 ± 1.0 s⁻¹
dP/dtmax % vs. PRE [4]: 2%
dP/dtmax (peak rate of LV pressure change during systole) [4]: 2,702 mmHg/s
dP/dtmin % vs. PRE [4]: 2%
dP/dtmin (peak rate of LV pressure change during diastole) [4]: −2,457 mmHg/s
CT (contraction time) [5]: 61.4 ± 0.6 ms
EDP (left-ventricular end-diastolic pressure) [5]: 15.7 mmHg
FT (filling time) [5]: 535 ± 46 ms
HR (heart rate) [5]: 85 bpm
MSP (left-ventricular mean systolic pressure) [5]: 138 mmHg
RT (relaxation time) [5]: 87 ± 1 ms
S/D (systolic to diastolic ratio, SET/RT + FT) [5]: 0.26
SET (systolic ejection time) [5]: 155 ± 2 ms
Tau (left-ventricular relaxation time-constant) [5]: 27.9 ± 1.4 ms
Vmax (estimated maximal velocity of myocardial contractile-element shortening) [5]: 37.1 ± 1.1 s⁻¹
dP/dtmax (peak rate of LV pressure change during systole) [5]: 2,661 mmHg/s
dP/dtmin (peak rate of LV pressure change during diastole) [5]: −2,407 mmHg/s
CT [6]: 61 ± 1 ms
FT [6]: 577 ± 49 ms
HR [6]: 82 ± 5 bpm
LV-EDP [6]: 16 ± 2 mmHg
LV-MSP [6]: 137 ± 3 mmHg
LV-Tau [6]: 28.5 ± 1.4 ms
LV-Vmax [6]: 37.0 ± 1.0 s⁻¹
LV-dP/dtmax [6]: 2,644 ± 79 mmHg/s
LV-dP/dtmin [6]: −2,367 ± 91 mmHg/s
RT [6]: 88 ± 1 ms
S/D [6]: 0.24 ± 0.01
SET [6]: 157 ± 2 ms
CT change vs. CTRL [7]: (−9 ± 1) %
LV-MSP change vs. CTRL [7]: (4 ± 2) %
LV-Tau change vs. CTRL [7]: (−3 ± 3) %
LV-Vmax change vs. CTRL [7]: (5 ± 3) %
LV-dP/dtmin change vs. CTRL [7]: (8 ± 3) %
RT change vs. CTRL [7]: (−2 ± 2) %
SET change vs. CTRL [7]: (4 ± 2) %
